Experimental data reported in patent publication US10533002B2, “Thiophene- or furan-substituted isothiazoline compounds as pesticides” (BOEHRINGER INGELHEIM ANIMAL HEATLH USA INC., priority 2013, dated 2020).

What was measured:
[1] = test system: Diamond Back Moth (Plutella xylostella); experiment: Diamond back moth leaf-dip test (B.1); format: in vivo; settings: cabbage leaves dipped, 3rd instar larvae, 72 hours after treatment, read-out: mortality in comparison with untreated controls
Experimental: B.1 Diamond Back Moth (Plutella xylostella)
The active compound was dissolved at the desired concentration in a mixture of 1:1 (vol:vol) distilled water:aceteone. Surfactant (Kinetic HV) was added at a rate of 0.01% (vol/vol). The test solution was prepared at the day of use.
Leaves of cabbage were dipped in test solution and air-dried. Treated leaves were placed in petri dishes lined with moist filter paper and inoculated with ten 3rd instar larvae. Mortality was recorded 72 hours after treatment. Feeding damages were also recorded using a scale of 0-100%.

[2] = test system: Vetch Aphid (Megoura viciae); experiment: Vetch aphid broad bean leaf disk test (B.6); format: in vivo; settings: foliar, 120 h, adult aphids on sprayed broad bean leaf disks, 5 days, read-out: mortality in comparison with untreated controls
Experimental: B.6 Vetch Aphid (Megoura viciae)
For evaluating control of vetch aphid (Megoura viciae) through contact or systemic means the test unit consisted of 24-well-microtiter plates containing broad bean leaf disks.
The compounds were formulated using a solution containing 75% v/v water and 25% v/v DMSO. Different concentrations of formulated compounds were sprayed onto the leaf disks at 2.5 μl, using a custom built micro atomizer, at two replications. After application, the leaf disks were air-dried and 5-8 adult aphids placed on the leaf disks inside the microtiter plate wells. The aphids were then allowed to suck on the treated leaf disks and incubated at about 23±1° C. and about 50±5% relative humidity for 5 days. Aphid mortality and fecundity was then visually assessed.

[3] = test system: Tobacco Budworm (Heliothis virescens); experiment: Tobacco budworm microtiter diet test (B.7); format: in vivo; settings: 120 h, egg and larval mortality, sprayed insect diet, 5 days, read-out: mortality in comparison with untreated controls
Experimental: B.7 Tobacco Budworm (Heliothis virescens)
For evaluating control of tobacco budworm (Heliothis virescens) the test unit consisted of 96-well-microtiter plates containing an insect diet and 15-25 H. virescens eggs. The compounds were formulated using a solution containing 75% v/v water and 25% v/v DMSO. Different concentrations of formulated compounds were sprayed onto the insect diet at 10 μl, using a custom built micro atomizer, at two replications.
After application, microtiter plates were incubated at about 28±1° C. and about 80±5% relative humidity for 5 days. Egg and larval mortality was then visually assessed.

[4] = test system: Boll Weevil (Anthonomus grandis); experiment: Boll weevil microtiter diet test (B.8); format: in vivo; settings: 120 h, egg and larval mortality, sprayed insect diet, 5 days, read-out: mortality in comparison with untreated controls
Experimental: B.8 Boll Weevil (Anthonomus grandis)
For evaluating control of boll weevil (Anthonomus grandis) the test unit consisted of 96-well-microtiter plates containing an insect diet and 5-10 A. grandis eggs.
The compounds were formulated using a solution containing 75% v/v water and 25% v/v DMSO. Different concentrations of formulated compounds were sprayed onto the insect diet at 5 μl, using a custom built micro atomizer, at two replications.
After application, microtiter plates were incubated at about 25±1° C. and about 75±5% relative humidity for 5 days. Egg and larval mortality was then visually assessed.

[5] = test system: Mediterranean Fruitfly (Ceratitis capitata); experiment: Mediterranean fruitfly microtiter diet test (B.3); settings: 120 h, read-out: mortality in comparison with untreated controls
[6] = test system: Southern Armyworm (Spodoptera eridania); experiment: Southern armyworm lima bean foliar spray test (B.5); format: in vivo; settings: 96 h, larvae on sprayed lima bean plants, 4 days after treatment, read-out: mortality in comparison with untreated controls
Experimental: B.5 Southern Armyworm (Spodoptera eridania)
The active compounds were formulated by a Tecan liquid handler in 100% cyclohexanone as a 10,000 ppm solution supplied in tubes. The 10,000 ppm solution was serially diluted in 100% cyclohexanone to make interim solutions. These served as stock solutions for which final dilutions were made by the Tecan in 50% acetone:50% water (v/v) into 5 or 10 ml glass vials. A nonionic surfactant (Kinetic®) was included in the solution at a volume of 0.01% (v/v). The vials were then inserted into an automated electrostatic sprayer equipped with an atomizing nozzle for application to plants/insects.
Lima bean plants (variety Sieva) were grown 2 plants to a pot and selected for treatment at the 1st true leaf stage. Test solutions were sprayed onto the foliage by an automated electrostatic plant sprayer equipped with an atomizing spray nozzle. The plants were dried in the sprayer fume hood and then removed from the sprayer. Each pot was placed into perforated plastic bags with a zip closure. About 10 to 11 armyworm larvae were placed into the bag and the bags zipped closed. […] Mortality and reduced feeding were assessed 4 days after treatment, compared to untreated control plants.

[7] = test system: Green Peach Aphid (Myzus persicae); experiment: Green peach aphid artificial diet systemic test (B.2); format: in vivo; settings: 72 h, adult aphids on treated artificial diet, 3 days, read-out: mortality in comparison with untreated controls
From the text: B.2 Green Peach Aphid (Myzus persicae)
For evaluating control of green peach aphid (Myzus persicae) through systemic means the test unit consisted of 96-well-microtiter plates containing liquid artificial diet under an artificial membrane.
The compounds were formulated using a solution containing 75% v/v water and 25% v/v DMSO. Different concentrations of formulated compounds were pipetted into the aphid diet, using a custom built pipetter, at two replications.
After application, 5-8 adult aphids were placed on the artificial membrane inside the microtiter plate wells. The aphids were then allowed to suck on the treated aphid diet and incubated at about 23±1° C. and about 50±5% relative humidity for 3 days. Aphid mortality and fecundity was then visually assessed.

Cc1cc(C2=NSC(c3cc(Cl)c(Cl)c(Cl)c3)(C(F)(F)F)C2)sc1C(=O)NCC(F)(F)F (stereo not shown) [Compound 1-7, 3-Methyl-5-[5-(3,4,5-trichlorophenyl)-5-(trifluoromethyl)-4H-isothiazol-3-yl]-N-(2,2,2-trifluoroethyl)thiophene-2-carboxamide]
≥ 75%: mortality at 500 ppm [1] | mortality at 2500 ppm [2] | mortality at 2500 ppm [3] | mortality at 2500 ppm [4] | mortality at 2500 ppm [5]

Cc1cc(C2=NSC(c3cc(Cl)c(Cl)c(Cl)c3)(C(F)(F)F)C2)sc1C(=O)OC(C)(C)C (stereo not shown) [Compound 1-1, tert-Butyl 3-methyl-5-[5-(3,4,5-trichlorophenyl)-5-(trifluoromethyl)-4H-isothiazol-3-yl]thiophene-2-carboxylate]
≥ 75%: mortality at 300 ppm [6]

O=C(NCc1ncccn1)c1sc(C2=NSC(c3cc(Cl)c(F)c(Cl)c3)(C(F)(F)F)C2)cc1C(F)(F)F (stereo not shown) [Compound 1-12, 5-[5-(3,5-Dichloro-4-fluoro-phenyl)-5-(trifluoromethyl)-4H-isothiazol-3-yl]-N-(pyrimidin-2-ylmethyl)-3-(trifluoromethyl)thiophene-2-carboxamide]
≥ 75%: mortality at 2500 ppm [7] | mortality at 2500 ppm [2] | mortality at 2500 ppm [3] | mortality at 2500 ppm [4] | mortality at 2500 ppm [5]

O=C(O)c1sc(C2=NSC(c3cc(Cl)c(F)c(Cl)c3)(C(F)(F)F)C2)cc1C(F)(F)F (stereo not shown) [Compound 1-9, 5-[5-(3,5-Dichloro-4-fluoro-phenyl)-5-(trifluoromethyl)-4H-isothiazol-3-yl]-3-(trifluoromethyl)-thiophene-2-carboxylic acid]
≥ 75%: mortality at 2500 ppm [3] | mortality at 2500 ppm [4]
